Assay [1] can be described thus: Cytotoxicity against human DU145 cells after 48 hrs by sulforhodamine B assay. The format is functional, cell-based. As to conditions: DU-145, 48 h.
The test system of a further assay is A549. In words: Cytotoxicity against human A549 cells after 48 hrs by sulforhodamine B assay. The format is functional, cell-based. The note with it: A549, 48 h. A general note: The SRB assay estimates cell density from bound dye.
The subject of a further assay is HeLa. The assay is described as follows: Cytotoxicity against human HeLa cells after 48 hrs by sulforhodamine B assay. Type of assay: functional, cell-based.
The subject of another assay is MCF7. The assay is described as follows: Cytotoxicity against human MCF7 cells after 48 hrs by sulforhodamine B assay. Type of assay: functional, cell-based. As to conditions: MCF7, 48 h.
Assay [2] can be described thus: Cytotoxicity against mouse NIH/3T3 cells after 48 hrs by sulforhodamine B assay. As to conditions: NIH3T3, 48 h.

For 29 compounds, IC50 results are on record in ChEMBL document CHEMBL3797105, “Investigation of triazole-linked indole and oxindole glycoconjugates as potential anticancer agents: novel Akt/PKB signaling pathway inhibitors” (Medchemcomm, 2016).

SMILES strings stand for the structures.

`Cc1ccc(/C=C2/C(=O)Nc3ccccc32)cc1`: the IC50 (in assay [1]; in the assay with A549; with HeLa; in the assay on MCF7; in assay [2]) was over 100 µM throughout.

As for `COc1ccc2c(c1)c(C=O)cn2Cc1cn([C@@H]2O[C@H](COC(C)=O)[C@@H](OC(C)=O)[C@H](OC(C)=O)[C@H]2OC(C)=O)nn1`, the IC50 (usually the concentration that gives 50% inhibition) in assay [1] is 136 µM; with A549, 106 µM; with HeLa, over 200 µM; with MCF7, over 200 µM; in assay [2] it was over 200 µM.

Consider `COc1ccc(/C=C2\C(=O)N(Cc3cn([C@@H]4O[C@H](COC(C)=O)[C@@H](OC(C)=O)[C@H](OC(C)=O)[C@H]4OC(C)=O)nn3)c3ccccc32)cc1OC`, for which the concentration for half-maximal inhibition (IC50) in assay [1] was 24.9 µM; in the assay with A549 it was 23.3 µM; in the assay with HeLa it was 63.4 µM; with MCF7, 23.5 µM; in assay [2] it was over 100 µM.

With `CCC/C=C1\C(=O)N(Cc2cn([C@@H]3O[C@H](COC(C)=O)[C@@H](OC(C)=O)[C@H](OC(C)=O)[C@H]3OC(C)=O)nn2)c2ccccc21`, the half-maximal inhibitory concentration (IC50) was 26.6 µM in assay [1]; 40.4 µM in the assay on A549; 46.3 µM with HeLa; 25 µM with MCF7; over 100 µM in assay [2].

For `CC(=O)OC[C@H]1O[C@@H](n2cc(Cn3cc(C=O)c4ccccc43)nn2)[C@H](OC(C)=O)[C@@H](OC(C)=O)[C@@H]1OC(C)=O`, the IC50 in assay [1] was 58.7 µM; in the assay with A549, over 200 µM; in the assay on HeLa, 44.5 µM; in the assay on MCF7 it was 25.2 µM; in assay [2] it was over 200 µM.

As for `CC(=O)OC[C@H]1O[C@@H](n2cc(CN3C(=O)/C(=C\C=C\c4ccccc4)c4ccccc43)nn2)[C@H](OC(C)=O)[C@@H](OC(C)=O)[C@@H]1OC(C)=O`, the IC50 was 19.5 µM in assay [1]; 58.4 µM in the assay on A549; 98.1 µM in the assay on HeLa; 34.1 µM with MCF7; 25.9 µM in assay [2].

Consider `CC(=O)OC[C@H]1O[C@@H](n2cc(CN3C(=O)/C(=C/c4ccccn4)c4ccccc43)nn2)[C@H](OC(C)=O)[C@@H](OC(C)=O)[C@@H]1OC(C)=O`, for which the IC50 in assay [1] was 48.3 µM; in the assay on A549, 26.1 µM; in the assay on HeLa, 51.7 µM; in the assay with MCF7 it was 32.1 µM; in assay [2], over 100 µM.

As to `CC(=O)OC[C@H]1O[C@@H](n2cc(CN3C(=O)/C(=C/C=C/c4ccccc4)c4ccccc43)nn2)[C@H](OC(C)=O)[C@@H](OC(C)=O)[C@@H]1OC(C)=O`, the half-maximal inhibitory concentration (IC50) was 17.1 µM in assay [1]; over 100 µM in the assay on A549; over 100 µM in the assay on HeLa; 53.2 µM in the assay with MCF7; 12.3 µM in assay [2].

Consider `CC(=O)OC[C@H]1O[C@@H](n2cc(CN3C(=O)/C(=C/c4ccc5ccccc5c4)c4ccccc43)nn2)[C@H](OC(C)=O)[C@@H](OC(C)=O)[C@@H]1OC(C)=O`, for which the IC50 is 43.7 µM in assay [1]; 30.9 µM in the assay with A549; over 100 µM in the assay with HeLa; 32.7 µM in the assay with MCF7; 28.4 µM in assay [2].

Consider `CC(=O)OC[C@H]1O[C@@H](n2cc(Cn3cc(C(C)=O)c4ccccc43)nn2)[C@H](OC(C)=O)[C@@H](OC(C)=O)[C@@H]1OC(C)=O`, for which the concentration for half-maximal inhibition (IC50) was 75.2 µM in assay [1]; over 200 µM in the assay with A549; over 200 µM in the assay on HeLa; over 200 µM in the assay on MCF7; over 200 µM in assay [2].

In the case of `COc1cccc2c1C(=O)c1c(O)c3c(c(O)c1C2=O)C[C@@](O)(C(=O)CO)C[C@@H]3O[C@H]1C[C@H](N)[C@H](O)[C@H](C)O1` [DOXORUBICIN], the concentration for half-maximal inhibition (IC50) worked out at 5.4 µM in assay [1], 7.2 µM in the assay on HeLa, 6.1 µM with MCF7 and 10.1 µM in assay [2].

On to `CC(=O)OC[C@H]1O[C@@H](n2cc(CN3C(=O)/C(=C\c4ccc5ccccc5c4)c4ccccc43)nn2)[C@H](OC(C)=O)[C@@H](OC(C)=O)[C@@H]1OC(C)=O`, for which the 50% inhibitory concentration (IC50) in assay [1] is over 100 µM; in the assay with A549, 62.2 µM; with HeLa, over 100 µM; in the assay with MCF7, 46.5 µM; in assay [2] it was 80 µM.

For the compound `CC(=O)OC[C@H]1O[C@@H](n2cc(Cn3cc(/C=C/C(=O)c4c5ccccc5cc5ccccc45)c4ccccc43)nn2)[C@H](OC(C)=O)[C@@H](OC(C)=O)[C@@H]1OC(C)=O`, the IC50 was 58.1 µM in assay [1]; 46.8 µM in the assay on A549; 165 µM in the assay with HeLa; 44 µM with MCF7; over 200 µM in assay [2].

Turning to `CC(=O)OC[C@H]1O[C@@H](n2cc(CN3C(=O)/C(=C\c4ccco4)c4ccccc43)nn2)[C@H](OC(C)=O)[C@@H](OC(C)=O)[C@@H]1OC(C)=O`, the IC50 is 16.9 µM in assay [1]; 41.1 µM in the assay with A549; over 100 µM with HeLa; 38.2 µM in the assay with MCF7; 13.3 µM in assay [2].

Consider `CC(=O)OC[C@H]1O[C@@H](n2cc(Cn3cc(/C=C4/C(=O)Nc5ccc(F)cc54)c4ccccc43)nn2)[C@H](OC(C)=O)[C@@H](OC(C)=O)[C@@H]1OC(C)=O`, for which the IC50 in assay [1] was 87.4 µM; in the assay with A549, 36.9 µM; in the assay with HeLa, over 200 µM; in the assay on MCF7, 40.4 µM; in assay [2], 62.5 µM.

As to `CC(=O)OC[C@H]1O[C@@H](OC(C)=O)[C@H](OC(C)=O)[C@@H](OC(C)=O)[C@@H]1OC(C)=O`, the concentration for half-maximal inhibition (IC50) (in assay [1]; in the assay on A549; with HeLa; with MCF7; in assay [2]) was over 200 µM each time.

For `CC(=O)OC[C@H]1O[C@@H](n2cc(CN3C(=O)/C(=C/c4cccs4)c4ccccc43)nn2)[C@H](OC(C)=O)[C@@H](OC(C)=O)[C@@H]1OC(C)=O`, the half-maximal inhibitory concentration (IC50) was 23.4 µM in assay [1]; 20.8 µM in the assay with A549; 36.9 µM in the assay with HeLa; 28.1 µM with MCF7; 48.1 µM in assay [2].

As for `O=C(/C=C/c1c[nH]c2ccccc12)c1ccccc1`, the IC50 (in assay [1]; in the assay with A549; with HeLa; in the assay with MCF7; in assay [2]) was over 200 µM in each case.

For the compound `COc1ccc2c(c1)c(/C=C1/C(=O)Nc3ccc(F)cc31)cn2Cc1cn([C@@H]2O[C@H](COC(C)=O)[C@@H](OC(C)=O)[C@H](OC(C)=O)[C@H]2OC(C)=O)nn1`, the half-maximal inhibitory concentration (IC50) (in assay [1]; with A549; in the assay with HeLa; in the assay with MCF7; in assay [2]) was over 200 µM each time.

In the case of `CCC/C=C1/C(=O)N(Cc2cn([C@@H]3O[C@H](COC(C)=O)[C@@H](OC(C)=O)[C@H](OC(C)=O)[C@H]3OC(C)=O)nn2)c2ccccc21`, the IC50 in assay [1] is 19.7 µM; in the assay on A549, 24.1 µM; in the assay with HeLa it was over 100 µM; in the assay on MCF7 it was 22.6 µM; in assay [2] it was over 100 µM.

Take `CC(=O)OC[C@H]1O[C@@H](n2cc(Cn3cc([N+](=O)[O-])c4ccccc43)nn2)[C@H](OC(C)=O)[C@@H](OC(C)=O)[C@@H]1OC(C)=O`: the IC50 in assay [1] was 60.9 µM; with A549, 93.2 µM; in the assay with HeLa, over 200 µM; in the assay with MCF7, over 200 µM; in assay [2], 20.5 µM.

Turning to `CC(=O)OC[C@H]1O[C@@H](n2cc(Cn3cc(/C=C4/C(=O)Nc5ccccc54)c4ccccc43)nn2)[C@H](OC(C)=O)[C@@H](OC(C)=O)[C@@H]1OC(C)=O`, the IC50 was over 200 µM in assay [1]; over 200 µM in the assay on A549; over 200 µM with HeLa; 22.2 µM with MCF7; over 200 µM in assay [2].

For the compound `CC(=O)OC[C@H]1O[C@@H](n2cc(CN3C(=O)/C(=C/c4ccco4)c4ccccc43)nn2)[C@H](OC(C)=O)[C@@H](OC(C)=O)[C@@H]1OC(C)=O`, the 50% inhibitory concentration (IC50) in assay [1] is 10 µM; with A549, 14.5 µM; with HeLa, 29.9 µM; with MCF7 it was 29.1 µM; in assay [2], 31.8 µM.

In the case of `CC(=O)OC[C@H]1O[C@@H](n2cc(CN3C(=O)/C(=C\c4ccc(N(C)C)cc4)c4ccccc43)nn2)[C@H](OC(C)=O)[C@@H](OC(C)=O)[C@@H]1OC(C)=O`, the half-inhibitory concentration (IC50) came to 10.1 µM in assay [1]; 17.7 µM in the assay with A549; 25 µM with HeLa; 29.8 µM with MCF7; 17 µM in assay [2].

Take `CC(=O)OC[C@H]1O[C@@H](n2cc(CN3C(=O)/C(=C/c4ccccc4)c4ccccc43)nn2)[C@H](OC(C)=O)[C@@H](OC(C)=O)[C@@H]1OC(C)=O`: the IC50 was 22.8 µM in assay [1]; 20.6 µM with A549; 37.1 µM in the assay with HeLa; 30.2 µM in the assay with MCF7; over 100 µM in assay [2].

`CC(=O)OC[C@H]1O[C@@H](n2cc(CN3C(=O)/C(=C\c4ccccc4)c4ccccc43)nn2)[C@H](OC(C)=O)[C@@H](OC(C)=O)[C@@H]1OC(C)=O`: the half-maximal inhibitory concentration (IC50) was found to be 24.1 µM in assay [1]; 17.9 µM with A549; 33.3 µM in the assay on HeLa; 24.3 µM with MCF7; 22.8 µM in assay [2].

In the case of `CC(=O)OC[C@H]1O[C@@H](n2cc(CN3C(=O)/C(=C\c4cccs4)c4ccccc43)nn2)[C@H](OC(C)=O)[C@@H](OC(C)=O)[C@@H]1OC(C)=O`, the IC50 in assay [1] was 22.8 µM; in the assay on A549, 16.1 µM; in the assay with HeLa, over 100 µM; with MCF7, 36.1 µM; in assay [2], 14.6 µM.

As for `CC(=O)OC[C@H]1O[C@@H](n2cc(CN3C(=O)/C(=C/c4ccc(N(C)C)cc4)c4ccccc43)nn2)[C@H](OC(C)=O)[C@@H](OC(C)=O)[C@@H]1OC(C)=O`, the concentration for half-maximal inhibition (IC50) in assay [1] is 11.2 µM; with A549 it was 19.4 µM; in the assay on HeLa, 26.3 µM; with MCF7, 25.2 µM; in assay [2], 12.7 µM.

For the compound `COc1ccc2c(c1)c(/C=N/O)cn2Cc1cn([C@@H]2O[C@H](COC(C)=O)[C@@H](OC(C)=O)[C@H](OC(C)=O)[C@H]2OC(C)=O)nn1`, the IC50 in assay [1] was 88.4 µM; in the assay with A549, over 200 µM; in the assay with HeLa, over 200 µM; in the assay with MCF7, 51 µM; in assay [2], 26.2 µM.
